Test results published in PMC4510386, “Transglycosylation Activity of Glycosynthase Mutants of Endo-β-N-Acetylglucosaminidase from Coprinopsis cinerea” (PLoS ONE, 2015).

Molecular target: T1, Endo-CC1 (Coprinopsis cinerea, UniProt A8P7P2)
T1 construct: gene CC1G_11102; full-length cDNA, 787 residues, His6-tagged, pET23b NdeI/XhoI, E. coli BL21-CodonPlus (DE3), HisTrap purified
Assay: HPLC of Dns-Asn-GlcNAc release, Lineweaver-Burk
Type: biochemical
Settings: 100 mM phosphate pH 7.5, 37 C; hydrolysis

T1 sequence (A8P7P2 entry or part of it): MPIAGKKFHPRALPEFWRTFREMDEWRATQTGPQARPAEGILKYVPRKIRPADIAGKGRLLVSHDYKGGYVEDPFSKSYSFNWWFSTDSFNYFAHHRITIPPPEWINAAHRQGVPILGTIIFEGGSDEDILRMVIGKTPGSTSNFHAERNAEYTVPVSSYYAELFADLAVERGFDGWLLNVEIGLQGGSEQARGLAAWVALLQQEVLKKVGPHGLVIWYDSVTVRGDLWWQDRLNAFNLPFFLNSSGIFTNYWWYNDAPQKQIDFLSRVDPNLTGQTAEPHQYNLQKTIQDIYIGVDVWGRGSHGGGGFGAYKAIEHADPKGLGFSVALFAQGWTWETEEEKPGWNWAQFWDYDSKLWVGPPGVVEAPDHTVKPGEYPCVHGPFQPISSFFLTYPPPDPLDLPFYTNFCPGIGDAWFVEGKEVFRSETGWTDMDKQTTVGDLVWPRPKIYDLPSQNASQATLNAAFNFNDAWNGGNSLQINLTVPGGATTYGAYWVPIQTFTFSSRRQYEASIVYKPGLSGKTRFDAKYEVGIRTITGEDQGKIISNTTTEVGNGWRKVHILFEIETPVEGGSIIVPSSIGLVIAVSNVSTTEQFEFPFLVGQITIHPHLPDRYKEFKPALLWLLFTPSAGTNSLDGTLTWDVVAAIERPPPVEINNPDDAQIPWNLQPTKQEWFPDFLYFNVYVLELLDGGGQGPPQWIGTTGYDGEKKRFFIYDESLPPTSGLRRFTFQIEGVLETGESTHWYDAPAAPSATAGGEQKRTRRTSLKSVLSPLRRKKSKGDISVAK

Dns-SG
Km: 1900 µM
